{"source": "patent US5662929A", "about": "“Therapeutic liposomal formulation” (Universite de Montreal, priority 1994, dated 1997)", "key": {"[1]": {"system": "Pseudomonas aeruginosa PA 508 (mucoid phenotype)", "experiment": "Bactericidal effect in chronic pulmonary infection, rat (Table 3 experiment)", "format": "in vivo, P. aeruginosa in Sprague-Dawley rats", "procedure": "Different liposomal formulations were prepared according to Example 1 and analyzed by differential scan colorimetry. Using differential scan calorimetry, the temperatures of phase transition (Tc) were calculated for the tobramycin-liposomal formulations listed in Table 1. All these formulations were then tested in vitro to assess the antibiotic kinetics of liberation from the liposomes. In addition, these formulations were tested in a non-infected mouse model as previously described (Omri et al. 1994, Antimicrob. Agents Chemother. 38:1090-1095) to assess the persistence of the liposomes in the lung. Only the DPPC/DMPG 10:1, 15:1 and DSPC. […] These liposomal formulations were further tested in animal model of chronic pulmonary infection to examine their antibacterial efficacy. […] Of note, the addition of cholesterol to the formulation described in Table 1 brought the Tc to a minimum value of 60° C. Such formulations were incompatible with modulation of gradual antibiotic liberation and suitable interactions with bacteria. Thus, in order to maintain the desired characteristic of the liposome formulation, a low rigidity of the liposomes seems required. This low rigidity can be achieved by maintaining a low temperature of phase transition (below the body temperature of the animal to which the formulation is to be administered) and avoiding the use of cholesterol in the formulation.\n(§1) To evaluate the bactericidal efficacy of a liposomal aminoglycoside formulation produced according to the present invention, male, pathogen-free, Sprague-Dawley rats weighing 175 to 225 g (Charles River) were used. Chronic infection in lungs was established by intratracheal administration of 5×10^5 CFU of Pseudomonas aeruginosa PA 508 (mucoid phenotype) prepared in agar beads. It is to be pointed out that this rat model for chronic pulmonary infection is widely recognized as the most appropriate animal model for chronic pulmonary infections in human CF patients. After 3 days, three doses (600 ug) of free or liposome-encapsulated tobramycin were given intratracheally at intervals of 16 h. The lipid mixture were DPPC:DMPG at a molar ratio of 10:1 (formula no 1) and DPPC:DMPC at a molar ratio of 15:1 (formula no 2). Sixteen hours after the last treatment, the animals were sacrificed and the entire lungs were removed aseptically, weighed and homogenized as described previously for mice. Serial 10-fold dilutions of the homogenates in cold PBS were made and spread in triplicate on proteose peptone agar plates. Identification of P. aeruginosa was confirmed by specific cultures. CFU were counted after 24-h incubations at 37° C. under 5% CO^2. Counts were expressed in log CFU per pair of lungs. PBS and PBS-liposomes were used as controls."}, "[2]": {"system": "P. aeruginosa", "experiment": "Bactericidal effect in infected rat lung tissues, second experiment (Table 4)", "format": "in vivo, P. aeruginosa in Sprague-Dawley rats", "conditions": "two doses of 240 ug", "from_the_text": "as §1, with “After 3 days, three doses (600 ug) of free or liposome-encapsulated tobramycin were given intratracheally at intervals of 16 h.” left out, “controls. […]” for “controls.”"}, "[3]": {"experiment": "Pulmonary retention / tobramycin levels after intratracheal administration in non-infected mice", "format": "in vivo, BALB/c mice", "conditions": "200 ug intratracheal, HPLC", "procedure": "Using differential scan calorimetry, the temperatures of phase transition (Tc) were calculated for the tobramycin-liposomal formulations listed in Table 1. All these formulations were then tested in vitro to assess the antibiotic kinetics of liberation from the liposomes. […] These liposomal formulations were further tested in animal model of chronic pulmonary infection to examine their antibacterial efficacy.\nLungs and kidneys were removed aseptically, weighed, and then homogenized in cold sterile PBS (40% [wt/vol]) for 30 s with a Polytron homogenizer. Tobramycin levels in both homogenized tissues and sera were measured by HPLC. Groups of three mice were used for each time value."}}}
{"smiles": "NC[C@H]1O[C@H](O[C@H]2[C@H](O)[C@@H](O[C@H]3O[C@H](CO)[C@@H](O)[C@H](N)[C@H]3O)[C@H](N)C[C@@H]2N)[C@H](N)C[C@@H]1O", "note": "[free tobramycin, tobramycin]", "values": [{"measurement": "bacteria enumerated", "setting": "[1]; free antibiotic, see below", "value": "10^7 c.f.u."}, {"measurement": "antibacterial efficacy in chronic pulmonary infection model (in words)", "setting": "[1]; rat, compared with free antibiotic", "value": "no or little bactericidal activity"}, {"measurement": "log cfu/pair of lungs", "setting": "[1]; three doses (600 ug) intratracheally at 16 h intervals, 16 h after last treatment", "value": "7.10 log cfu/pair of lungs"}, {"measurement": "cfu/pair of lungs", "setting": "[1]; three doses (600 ug) intratracheally at 16 h intervals, 16 h after last treatment, cfu counts < 30 not statistically significant", "value": "1.25 × 10^7 cfu/pair of lungs"}, {"measurement": "cfu/pair of lungs", "setting": "[2]", "value": "1.07 × 10^6 cfu/pair of lungs"}, {"measurement": "log cfu/pair of lungs", "setting": "[2]", "value": "6.03 log cfu/pair of lungs"}, {"measurement": "Conc in lungs", "setting": "[3]; 0.25 h", "value": "43 ug/pair of lungs"}, {"measurement": "Conc in kidneys", "setting": "[3]; 1 h", "value": "25 ug/pair of kidneys"}, {"measurement": "Conc in lungs", "setting": "[3]; 1 h", "value": "11 ug/pair of lungs"}]}
